Measurements: PMC12783734, “Carboxymethylcytosine is a natural base modification and a handle for bacteriophage DNA hypermodification” (Nature Communications, 2025)

Target: T1, EcCmoA (Escherichia coli, UniProt P76290)
T1 construct: gene cmoA; E. coli BL21(DE3)
Assay: HPLC / LC-MS of Cx-SAM formation
Type: biochemical
Details: co-substrate prephenate; sodium phosphate pH 6.8; 37 C

T1 sequence (P76290 whole entry): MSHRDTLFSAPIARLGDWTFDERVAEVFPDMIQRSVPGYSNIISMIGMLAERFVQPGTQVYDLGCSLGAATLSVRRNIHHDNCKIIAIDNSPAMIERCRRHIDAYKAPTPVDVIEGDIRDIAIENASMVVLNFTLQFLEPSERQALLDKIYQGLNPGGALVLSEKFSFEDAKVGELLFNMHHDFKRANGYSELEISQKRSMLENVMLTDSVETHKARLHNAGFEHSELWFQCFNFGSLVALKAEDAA

Question: For `C[S+](CC[C@H](N)C(=O)O)C[C@H]1O[C@@H](n2cnc3c(N)ncnc32)[C@H](O)[C@@H]1O` (stereo partly shown) [SAM], which “HPLC / LC-MS of Cx-SAM formation” value is on record?
Answer: Incubation with either SpCmoA or EcCmoA led to a decrease in the SAM peak
